Laboratory results from patent publication US20150265682A1, “THERAPEUTIC METHODS AND COMPOSITIONS FOR TREATING DIABETES” (Orient Europharma Co., Ltd., priority 2014, published 2015).

Tests used:
[1] = test system: normal mice, mice with type 1 DM, mice with type 2 DM; test: Plasma glucose after single intraperitoneal borapetoside A (acute study); assay type: in vivo, ICR mice; conditions: 60 min; for dose giving significant decrease of plasma glucose level: single i.p.
Description: (§1) The 4-week-old male ICR mice were purchased from the Animal Center of the College of Medicine, National Taiwan University (Taipei, Taiwan) with delicate humane care. This animal study was conducted by following the University ethical guidelines and the ‘Guide for the Care and Use of Laboratory Animals’ published by the US National Institutes of Health (NIH publication no. 85-23, revised 1996). The animal experiments were approved by the Institutional Animal Care and Use Committee (IACUC) of the National Taiwan University (IACUC No. 20110073). Animals were housed in a room at the constant temperature, 22±1° C., with 12 hours light and dark cycles.
After three days of acclimatization, the mice had free access to a standard rodent chow (normal mice), a standard rodent chow after single 250 mgkg^−1 streptozotocin (STZ) intraperitoneal injection (T1DM mice), and a fat-rich chow diet and fructose-sweetened water (T2DM mice) for 4 weeks. The induction of Type 1 DM was assessed and confirmed when the mice had plasma glucose levels ≧350 mgdL^−1, accompanied with polyuria, hyperphagia and decreased body weight. The induction Type 2 DM in the mice was assessed by measuring fasting plasma glucose levels and confirmed when plasma glucose level was ≧150 mgdL^−1 after the 4-week induction. The animals were assigned randomly into three groups, with seven animals in each group. In group I, the mice were treated with vehicle, 2% DMSO in normal saline, as the negative control. In group II, the mice were intraperitoneally treated with borapetoside A (0.1-10 mgkg^−1). […]
Blood samples were collected from the orbital vascular plexus of the mice under anesthesia. […] The plasma glucose concentration was measured by Glucose Kit Reagent (Biosystems S. A., Barcelona, Spain) following the manufacturer's instructions, and the insulin levels were estimated using mouse insulin ELISA kit (Mercodia AB, Uppsala, Sweden).

[2] = test system: human hepatocellular carcinoma cell line, Hep3B; test: Glycogen content assay in Hep3B cells; assay type: cell-based; conditions: 30 minutes
Description: (§2) The C2C12 skeletal muscle cells were cultured in Dulbecco's modified Eagle's medium (DMEM; Gibco/Invitrogen, Carlsbad, Calif.), and the human hepatocellular carcinoma cell line, Hep3B, was cultured in Roswell Park Memorial Institute medium 1640 (RPMI 1640 medium; Gibco/Invitrogen, Carlsbad, Calif.). Cells were cultured at 37° C. in the humidified incubator supplied with 5% CO2. Culture mediums were supplemented with 4.5 mgmL^−1 glucose, penicillin 100 IUmL^−1, streptomycin 100 μgmL^−1 and 10% fetal bovine serum (Gibco/Invitrogen, Carlsbad, Calif.). Only C2C12 cells were then switched to 2% horse serum for 3 days after reaching the 70% confluence. Myotubes formation was achieved after 4 days of incubation, and the cells were used for subsequent experiments. Culture mediums were replaced by serum free DMEM or RPMI for 24 h before experiments (see e.g., procedure described in Sultan et al., 2006).
(§3) C2C12 and Hep3B cells were treated with 1 nM insulin, 100 μM metformin, and the assigned concentration of borapetoside A for 30 minutes. To develop the insulin resistance state of cells, C2C12 cells were incubated with IL-6 at 20 ngmL^−1 for 1 hour. Later, the cells were treated with 1 nM insulin, 100 μM metformin, and the assigned concentration of borapetoside A for 30 minutes. After the assigned treatment, cells were washed twice with phosphate buffered saline (PBS). Glycogen content was measured as previously described, with some modifications (see e.g., Savage et al., 2008). The protein concentrations of the cell lysates were determined by using Pierce BCA Protein Assay Kit (Thermo-Scientific, Rockford, Ill.). The glycogen content of each sample was normalized by total protein.

[3] = test system: normal, T1DM and T2DM mice; test: Plasma insulin levels before and after treatment; assay type: in vivo, ICR mice
Description: as §1
After three days of acclimatization, the mice had free access to a standard rodent chow (normal mice), a standard rodent chow after single […] streptozotocin (STZ) intraperitoneal injection (T1DM mice), and a fat-rich chow diet and fructose-sweetened water (T2DM mice) for 4 weeks. The induction of Type 1 DM was assessed and confirmed when the mice had plasma glucose levels ≧350 mgdL^−1, accompanied with polyuria, hyperphagia and decreased body weight. The induction Type 2 DM in the mice was assessed by measuring fasting plasma glucose levels and confirmed when plasma glucose level was ≧150 mgdL^−1 after the 4-week induction. The animals were assigned randomly into three groups, with seven animals in each group. In group I, the mice were treated with vehicle, 2% DMSO in normal saline, as the negative control. In group II, the mice were intraperitoneally treated with borapetoside A (0.1-10 mgkg^−1). In group Ill, the positive control, the mice received intraperitoneally metformin (300 mgkg^−1; Sigma Chemical Co., St. Louis, Mo., U.S.A.) or insulin (0.5 IUkg^−1; Insulin Actrapid® HM; Novo Nordisk, Denmark). In the acute study, mice under anesthesia received a single intraperitoneal administration of borapetoside A, negative control, or positive control. In the subacute study, mice received intraperitoneal administrations of borapetoside A, vehicle, or insulin twice a day for seven days.
Blood samples were collected from the orbital vascular plexus of the mice under anesthesia. Blood samples were then centrifuged at 13000 rpm for 5 min, and the plasma samples were collected and kept on ice prior to the assay. The plasma glucose concentration was measured by Glucose Kit Reagent (Biosystems S. A., Barcelona, Spain) following the manufacturer's instructions, and the insulin levels were estimated using mouse insulin ELISA kit (Mercodia AB, Uppsala, Sweden).

[4] = test system: C2C12 skeletal muscle cells; test: Glycogen content assay in C2C12 myotubes; assay type: cell-based; conditions: 30 minutes
Description: as §2, §3

SMILES: C[C@@]12C[C@@H](c3ccoc3)OC(=O)[C@@H]1C[C@@H]1OC(=O)[C@@]3(O)[C@@H](O[C@@H]4O[C@H](CO)[C@@H](O)[C@H](O)[C@H]4O)CC[C@@H]2[C@@]13C [Borapetoside A, borapetoside A]
- dose giving significant decrease of plasma glucose level ([1]; mice with type 2 DM): higher than 0.3 mgkg^−1
- dose giving significant decrease of plasma glucose level ([1]; normal mice): ≥ 1 mgkg^−1
- plasma glucose level ([1]; normal, type 1 DM and type 2 DM mice, 0.1-10.0 mgkg^−1 single i.p.): lowered the plasma glucose level
- fold increase of glycogen content ([2]; 10^−5 mol/L): 1.54±0.11 fold
- fold increase of glycogen content ([2]; 10^−6 mol/L): 1.39±0.12 fold
- fold increase of glycogen content ([2]; 10^−7 mol/L): 1.46±0.05 fold
- Plasma insulin Before-treatment ([3]; Normal mice, 0.1 mg kg^−1 group): 61.0 ± 4.6 pmol/L
- Plasma insulin After-treatment ([3]; Normal mice, 0.1 mg kg^−1 i.p.): 68.3 ± 4.4 pmol/L
- Plasma insulin Before-treatment ([3]; Normal mice, 0.3 mg kg^−1 group): 63.4 ± 3.9 pmol/L
- Plasma insulin After-treatment ([3]; Normal mice, 0.3 mg kg^−1 i.p.): 129.4 ± 22.0 pmol/L
- Plasma insulin Before-treatment ([3]; Normal mice, 1 mg kg^−1 group): 66.1 ± 5.4 pmol/L
- Plasma insulin After-treatment ([3]; Normal mice, 1 mg kg^−1 i.p.): 118.8 ± 10.1 pmol/L
- Plasma insulin Before-treatment ([3]; Normal mice, 3 mg kg^−1 group): 64.4 ± 3.6 pmol/L
- Plasma insulin After-treatment ([3]; Normal mice, 3 mg kg^−1 i.p.): 121.2 ± 14.2 pmol/L
- Plasma insulin Before-treatment ([3]; Normal mice, 10 mg kg^−1 group): 68.9 ± 1.3 pmol/L
- Plasma insulin After-treatment ([3]; Normal mice, 10 mg kg^−1 i.p.): 108.2 ± 2.9 pmol/L
- Plasma insulin Before-treatment ([3]; T1DM mice, 0.1 mg kg^−1 group): 22.9 ± 0.1 pmol/L
- Plasma insulin After-treatment ([3]; T1DM mice, 0.1 mg kg^−1 i.p.): 22.7 ± 0.2 pmol/L
- Plasma insulin Before-treatment ([3]; T1DM mice, 0.3 mg kg^−1 group): 22.9 ± 0.1 pmol/L
- Plasma insulin After-treatment ([3]; T1DM mice, 0.3 mg kg^−1 i.p.): 22.7 ± 0.3 pmol/L
- Plasma insulin Before-treatment ([3]; T1DM mice, 1 mg kg^−1 group): 23.1 ± 0.2 pmol/L
- Plasma insulin After-treatment ([3]; T1DM mice, 1 mg kg^−1 i.p.): 23.0 ± 0.2 pmol/L
- Plasma insulin Before-treatment ([3]; T1DM mice, 3 mg kg^−1 group): 23.1 ± 0.2 pmol/L
- Plasma insulin After-treatment ([3]; T1DM mice, 3 mg kg^−1 i.p.): 23.0 ± 0.0 pmol/L
- Plasma insulin Before-treatment ([3]; T1DM mice, 10 mg kg^−1 group): 23.1 ± 0.1 pmol/L
- Plasma insulin After-treatment ([3]; T1DM mice, 10 mg kg^−1 i.p.): 23.0 ± 0.1 pmol/L
- Plasma insulin Before-treatment ([3]; T2DM mice, 0.1 mg kg^−1 group): 140.5 ± 4.1 pmol/L
- Plasma insulin After-treatment ([3]; T2DM mice, 0.1 mg kg^−1 i.p.): 134.5 ± 9.3 pmol/L
- Plasma insulin Before-treatment ([3]; T2DM mice, 0.3 mg kg^−1 group): 133.0 ± 4.2 pmol/L
- Plasma insulin After-treatment ([3]; T2DM mice, 0.3 mg kg^−1 i.p.): 149.0 ± 9.5 pmol/L
- Plasma insulin Before-treatment ([3]; T2DM mice, 1 mg kg^−1 group): 126.8 ± 5.7 pmol/L
- Plasma insulin After-treatment ([3]; T2DM mice, 1 mg kg^−1 i.p.): 123.7 ± 9.6 pmol/L
- Plasma insulin Before-treatment ([3]; T2DM mice, 3 mg kg^−1 group): 138.3 ± 3.6 pmol/L
- Plasma insulin After-treatment ([3]; T2DM mice, 3 mg kg^−1 i.p.): 184.3 ± 14.6 pmol/L
- Plasma insulin Before-treatment ([3]; T2DM mice, 10 mg kg^−1 group): 134.9 ± 3.5 pmol/L
- Plasma insulin After-treatment ([3]; T2DM mice, 10 mg kg^−1 i.p.): 205.3 ± 22.2 pmol/L
- fold increase of glycogen ([4]; 10^−6 mol/L): 1.49±0.15 fold
- fold increase of glycogen ([4]; 10^−7 mol/L): 1.28±0.04 fold
- fold increase of glycogen ([4]; 10^−8 mol/L): 1.53±0.10 fold
